Assay results as given in patent publication US20040121965A1, “Method of treating resistant tumors” (Wyeth Holdings Corporation, priority 2002, published 2004).

Columns and labels:
[1] = tested on: KB-3-1; test: Cell survival assay (SRB), KB-3-1; format: cell-based, human; conditions: Homo sapiens, KB 3-1, KB-3-1 cells (paclitaxel-sensitive parent); read-out: In vitro IC50 (nM) KB-3-1
Excerpt: Cells lines with previously known mechanisms of resistance. […] Res. 8: 207-218,1996); KB-3-1 (parental derived from an epidermoid carcinoma), KB-8.5, KB-V1 (Akiyama S-I, Fojo A, Hanover J A, Pastan I, Gottesman M M. Isolation and genetic characterization of human KB cell lines resistant to multiple drugs. Somatic Cell Mol. Gen., 11: 117-126,1985; Shen D-W, Cardarelli C, Hwang J, Cornwell M, Richert N, Ishii S, Pastan I, Gottesman MM. […] J. Biol. Chem., 261: 7762-7770, 1986); and HL-60 (parental derived from human leukemia) and HL60/AR (McGrath T., Center M. S. Adriamycin resistance in HL60 cells in the absence of detectable P-glycoprotein. Biochem. Res. Commun., 145:1171-1176,1987); A549 and A549.EpoB40 (He L., Yang C.-P.H., Horwitz S. B. Mutations in p-tubulin map to domains involved in regulation of microtubule stability in epothilone-resistant cell lines. Molecular Cancer Therapeutics. 1: 3-10, 2001). HCT-15 human colon carcinoma and DLD-1 human colon carcinoma are obtained from American Tissue Culture Collection. The MX-1W carcinoma is a Wyeth variant orginally obtained as MX-1 breast carcinoma from the National Cancer Institute. Cell lines selected for resistance to Representative Example 129. KB-3-1 cells are selected for resistance to Example 129 by chronically exposing cells to increasing concentrations of Example 129.
2.2. Cell Survival Assay: Standard Pharmacological Test Procedure. The concentration of candidate inhibitor required to inhibit 50% of cell growth (IC50) is done according to previously reported methods. […] Compounds are serially diluted into media as 2× stocks and 100 μl added to cells in duplicate. Compounds are incubated with cells for 3 days. At the end of the incubation period the sulforhodamine B (SRB) assay, which measures protein content as an assessment of cell survival, is performed as described previously (Skehan P, Storeng R, Scudiero D, Monks A, McMahon J, Vistica D, Warren J T, Bokesch H, Kenney S, Boyd MR. New calorimetric cytotoxicity assay for anticancer-drug screening. J Natl Cancer Inst 1990 Jul 4;82(13):1107-12) with some modification as follows. For KB-3-1 cells with 20% FCS, media is gently decanted and replaced with 200 μl of serum-free media mixed with cold 50% TCA for a final concentration of 10% TCA. The plates are incubated for 1 hr at 4° C., followed by washing 5 times in cold distilled water, then air dried overnight. The fixed cells are stained for 10 min with 80 μl of 0.04% SRB solution prepared in 1% glacial acetic acid. Stain is discarded and plates washed 5 times in 1% glacial acetic acid, then air-dried until completely dry. Stained cell product is dissolved in 150 μl of 10 mM Trizma Base and placed on a shaker for 20 minutes until fully dissolved. Absorbance is read on a Victor V multi-label plate reader (Perkin Elmer, Gaithersburg, Md.).

[2] = tested on: KB-8-5 (MDR1+); test: Cell survival assay (SRB), KB-8-5 (MDR1+); conditions: for IC50: Homo sapiens, MDR1, read-out: In vitro IC50 (nM) KB85
[3] = tested on: KB-V1 (MDR1++); test: Cell survival assay (SRB), KB-V1 (MDR1++); conditions: for IC50: Homo sapiens, read-out: In vitro IC50 (nM) KBV1

SMILES | IC50 [1] [nM] | Ratio KB85/KB [2] | IC50 [2] [nM] | Ratio KBV1/KB [3] | IC50 [3] [nM]
CCOC(=O)/C(C)=C/[C@H](C(C)C)N(C)C(=O)[C@@H](NC(=O)[C@@H](NC)C(C)(C)c1ccc(C)c(C)c1)C(C)(C)C [Example 13a, N,β, β,3,4-Pentamethyl-L-phenylalanyl-N^1-[(1S,2E)4-ethoxy-1-isopropyl-3-methyl-4-oxo-2-butenyl]-N^1,3-dimethyl-L-valinamide] | 9.1 | 24.0 | 219 | 191.0 | 1740
CN[C@@H](C(=O)N[C@H](C(=O)N(C)[C@H](/C=C(\C)C(=O)O)C(C)C)C(C)(C)C)C(C)(C)c1ccc(C)c(C)c1 [Example 15, N,β,β,3,4-Pentamethyl-D-phenylalanyl-N^1-[(1S,2E)-3-carboxy-1-isopropyl-2-butenyl]-N^1,3-dimethyl-L-valinamide] | 13.8 | 1.6 | 21.4 | 87.1 | 1200
CCOC(=O)/C(C)=C/[C@H](C(C)C)N(C)C(=O)[C@@H](NC(=O)[C@@H](NC)C(C)(C)c1cc(C)cc(C)c1)C(C)(C)C [Example 16a, N,β,β,3,5-Pentamethyl-L-phenylalanyl-N^1-[(1S,2E)-4-ethoxy-1-isopropyl-3-methyl-4-oxo-2-butenyl]-N^1,3-dimethyl-L-valinamide] | 15.1 | 20.0 | 302 | 120.5 | 1820
CCOC(=O)/C(C)=C/[C@H](C(C)C)N(C)C(=O)[C@@H](NC(=O)[C@H](NC)C(C)(C)c1cc(C)cc(C)c1)C(C)(C)C [Example 16b, N,β,β,3,5-pentamethyl-D-phenylalanyl-N^1-[(1S,2E)-4-ethoxy-1-isopropyl-3-methyl-4-oxo-2-butenyl]-N^1,3-dimethyl-L-valinamide] | 257 | 5.9 | 1510 | 11.7 | ≥ 3000
CN[C@H](C(=O)N[C@H](C(=O)N(C)[C@H](/C=C(\C)C(=O)O)C(C)C)C(C)(C)C)C(C)(C)c1cc(C)cc(C)c1 [Example 17, N,β,β,3,5-Pentamethyl-L-phenylalanyl-N^1-[(1S,2E)-3-carboxy-1-isopropyl-2-butenyl]-N^1,3-dimethyl-L-valinamide] | 1 | – | 1 | 75.7 | 44
CN[C@@H](C(=O)N[C@H](C(=O)N(C)[C@H](/C=C(\C)C(=O)O)C(C)C)C(C)(C)C)C(C)(C)c1cc(C)cc(C)c1 [Example 18, N,β,β,3,5-Pentamethyl-D-phenylalanyl-N^1-[(1S,2E)-3-carboxy-1-isopropyl-2-butenyl]-N^1,3-dimethyl-L-valinamide] | 7.2 | 2.4 | 17.4 | 79.9 | 575
CN[C@@H](C(=O)N[C@H](C(=O)N(C)[C@H](/C=C(\C)C(=O)O)C(C)C)C(C)(C)C)C(C)(C)c1cccs1 [Example 21, N-Methyl-3-(2-thienyl)-D-valyl-N^1-[(1S,2E)-3-carboxy-1-isopropyl-2-butenyl]-N^1,3-dimethyl-L-valinamide] | 10.2 | 1.8 | 18.2 | 74.4 | 758
CN[C@H](C(=O)N[C@H](C(=O)N(C)[C@H](/C=C(\C)C(=O)O)C(C)C)C(C)(C)C)C(C)(C)c1ccsc1 [Example 23, N-Methyl-3-thien-3-yl-L-valyl-N^1-[(1S,2E)-3-carboxy-1-isopropylbut-2-enyl]-N^1,3-dimethyl-L-valinamide] | 2.1 | 3.1 | 6.6 | 345.0 | 724
CN[C@@H](C(=O)N[C@H](C(=O)N(C)[C@H](/C=C(\C)C(=O)O)C(C)C)C(C)(C)C)C(C)(C)c1ccsc1 [Example 24, N-Methyl-3-thien-3-yl-D-valyl-N^1-[(1S,2E)-3-carboxy-1-isopropylbut-2-enyl]-N^1,3-dimethyl-L-valinamide] | 9.5 | 2.4 | 22.4 | 182.9 | 1740
CCOC(=O)/C(C)=C/[C@H](C(C)C)N(C)C(=O)[C@@H](NC(=O)C(NC)C(C)(C)c1csc2ccccc12)C(C)(C)C (stereo partly drawn) [Example 25, 3-(1-Benzothien-3-yl)-N-methylvalyl-N^1-[(l S,2E)-4-ethoxy-1-isopropyl-3-methyl4-oxo-2-butenyl]-N^1,3-dimethyl-L-valinamide] | 479 | 3.2 | 1510 | 6.2 | 2950
CN[C@H](C(=O)N[C@H](C(=O)N(C)[C@H](/C=C(\C)C(=O)O)C(C)C)C(C)(C)C)C(C)(C)c1csc2ccccc12 [Example 26, 3-(1-Benzothien-3-yl)-N-methylvalyl-N^1-[(1S,2E)-3-carboxy-1-isopropyl-2-butenyl]-N^1,3-dimethyl-L-valinamide] | 4.5 | 2.0 | 9.1 | 92.6 | 417
CCOC(=O)/C(C)=C/[C@H](C(C)C)N(C)C(=O)[C@@H](NC(=O)[C@@H](NC)C(C)(C)c1cc2ccccc2s1)C(C)(C)C [Example 27, 3-(1-Benzothien-2-yl)-N-methylvalyl-N^1-[(1S,2E)4-ethoxy-1-isopropyl-3-methyl4-oxo-2-butenyl]-N^1,3-dimethyl-L-valinamide] | 331 | 4.8 | 1580 | 9.1 | ≥ 3000
CN[C@H](C(=O)N[C@H](C(=O)N(C)[C@H](/C=C(\C)C(=O)O)C(C)C)C(C)(C)C)C(C)(C)c1cc2ccccc2s1 [Example 28, 3-(1-Benzothien-2-yl)-N-methylvalyl-N^1-[(1S,2E)-3-carboxy-1-isopropyl-2-butenyl]-N^1,3-dimethyl-L-valinamide] | 2.55 | 1.8 | 4.6 | 54.4 | 139
CCOC(=O)/C(C)=C/[C@H](C(C)C)N(C)C(=O)[C@@H](NC(=O)[C@@H](NC)C(C)(C)c1ccc(C(C)(C)C)cc1)C(C)(C)C [Example 29, 4-tert-Butyl-N,β,β-trimethylphenylalanyl-N^1-[(1S,2E)-4-ethoxy-1-isopropyl-3-methyl-4-oxo-2-butenyl]-N^1,3-dimethyl-L-valinamide] | 35.4 | 10.7 | 380 | 84.7 | ≥ 3000
CN[C@H](C(=O)N[C@H](C(=O)N(C)[C@H](/C=C(\C)C(=O)O)C(C)C)C(C)(C)C)C(C)(C)c1ccc(C(C)(C)C)cc1 [Example 30, 4-tert-Butyl-N,β,β-trimethylphenylalanyl-N^1-[(1S,2E)-3-carboxy-1-isopropyl-2-butenyl]-N^1,3-dimethyl-L-valinamide] | 3 | 1.7 | 5.1 | 35.9 | 108
CCN[C@H](C(=O)N[C@H](C(=O)N(C)[C@H](/C=C(\C)C(=O)OCC)C(C)C)C(C)(C)C)C(C)(C)c1ccccc1 [Example 31, N-Ethyl-β,β-dimethylphenylalanyl-N^1-[(1S,2E)-4-ethoxy-1-isopropyl-3-methyl4-oxo-2-butenyl]-N^1,3-dimethyl-L-valinamide] | 436 | 4.3 | 1860 | 6.9 | ≥ 3000
CN[C@H](C(=O)N[C@H](C(=O)N(C)[C@H](/C=C(\C)C(=O)O)C(C)C)C(C)(C)C)C(C)(C)c1ccccc1C [Example 35, N,β,β,2-Tetramethyl-L-phenylalanyl-N^1-[(1S,2E)-3-carboxy-1-isopropyl-2-butenyl]-N^1,3-dimethyl-L-valinamide] | 0.912 | 2.0 | 1.8 | 61.6 | 56.2
